Experimental data taken from PMC11076738, “A rapid and simple non-radioactive assay for measuring uptake by solute carrier transporters” (Frontiers in Pharmacology, 2024).

How the values were obtained:
Format in all cases: cell-based
NTCP = biological target: T1, NTCP (Homo sapiens, UniProt Q14973); experiment: TCA-d4 uptake assay (LC-MS/MS) in HepG2 NTCP cells
T1 construct: His-tag; expressed in transfected cells
T1 sequence (Q14973 1-349): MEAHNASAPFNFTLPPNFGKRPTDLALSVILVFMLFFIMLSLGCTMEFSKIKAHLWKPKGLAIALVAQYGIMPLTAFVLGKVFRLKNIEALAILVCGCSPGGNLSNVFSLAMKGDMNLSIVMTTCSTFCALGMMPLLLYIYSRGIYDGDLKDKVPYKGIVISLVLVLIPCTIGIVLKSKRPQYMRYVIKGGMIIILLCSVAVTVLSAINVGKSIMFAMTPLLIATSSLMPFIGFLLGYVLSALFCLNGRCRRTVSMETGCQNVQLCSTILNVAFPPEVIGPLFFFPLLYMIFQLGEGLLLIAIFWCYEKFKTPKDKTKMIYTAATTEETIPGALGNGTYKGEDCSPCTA
Experimental: HepG2 NTCP cells were seeded into 12-well plates at a density of 2×10^5/well. After a 48 h incubation, cells were carefully washed with uptake buffer (10 mM HEPES, 100 mM NaCl, 2 mM KCl, 1 mM MgCl2, 1 mM CaCl2, pH 7.4) twice and incubated in 0.5 mL of uptake buffer for 15 min at 37 °C. […] Cells were then allowed to take up 5 μM of TCA-d4 at 37 °C for another 15 min. After incubation, cells were washed with uptake buffer three times and lysed with 200 μL of ethanol. The cell lysate was transferred to a new tube and the supernatant was collected by centrifugation at 12,000 rpm for 10 min at 4°C. TCA-d4 uptake was quantified with LC-MS/MS.
Prepared samples were separated on an Agilent 1290 II system (CA, United States) equipped with an XSelect HSS T3 C18 reverse phase column (2.1 × 150 mm, 3.5 μm). […] To separate TCA-d4, the mobile phase consisted of solution A (5 mM ammonium formate) and solution B (methanol). […]
Targeted analytes were monitored in a negative multiple-reaction monitoring (MRM) mode on an Agilent 6495C triple quadrupole LS/MS system (CA, United States). […] Leucine-d3 and TCA-d4 were monitored in negative ion mode with MRM ion pairs at 135.1 > 89.2 (collision energy: 14 eV) and 518.0 > 124.0 (collision energy: 65 eV), respectively. […]

BMP reporter gene = BMP reporter gene assay (Id1-Luc) in HEK293T cells; conditions: HEK293T cells with Id1-Luc reporter; 3 μM, 12 h
Experimental: HEK293T cells transfected with Id1-Luc reporter construct were seeded into a 96-well plate (190 μL/well of 3,000 cells/mL)) and then treated with 3 μM JH7 for 12 h. FK506 and DMSO were used as positive and negative controls, respectively. Cells were removed 100 μL DMEM and added in 40 μL Bright-Glo™ Luciferase reagent (per well) and placed on a plate-shaker for 10 min. Bright-Glo™ Luciferase Assay was performed with Ensight plate reader.

LAT1 [1] = biological target: T2, LAT1 (Homo sapiens, UniProt Q01650); experiment: leucine-d3 uptake assay (LC-MS/MS) in LS174T cells; conditions: 5 μM leucine-d3, 15 min uptake, mean ± s.d., n = 3, read-out: IC50, inhibition of leucine-d3 uptake
T2 construct: endogenous in cells; host or cells: LS174T (wild type)
T2 sequence (Q01650 whole entry): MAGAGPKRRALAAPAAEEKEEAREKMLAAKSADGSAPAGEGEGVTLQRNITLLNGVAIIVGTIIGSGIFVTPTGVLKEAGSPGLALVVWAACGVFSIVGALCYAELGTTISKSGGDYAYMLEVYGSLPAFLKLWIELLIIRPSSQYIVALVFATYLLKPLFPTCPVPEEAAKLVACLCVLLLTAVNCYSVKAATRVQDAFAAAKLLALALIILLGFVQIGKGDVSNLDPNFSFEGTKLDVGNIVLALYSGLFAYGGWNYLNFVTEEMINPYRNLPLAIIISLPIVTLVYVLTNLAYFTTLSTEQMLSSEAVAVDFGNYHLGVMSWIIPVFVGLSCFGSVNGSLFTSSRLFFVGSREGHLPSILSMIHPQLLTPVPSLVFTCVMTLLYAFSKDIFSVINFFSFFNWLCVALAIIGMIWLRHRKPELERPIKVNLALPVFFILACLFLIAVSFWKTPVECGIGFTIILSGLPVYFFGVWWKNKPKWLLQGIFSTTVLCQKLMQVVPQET
T2 sequence (P08195 102-630 partner): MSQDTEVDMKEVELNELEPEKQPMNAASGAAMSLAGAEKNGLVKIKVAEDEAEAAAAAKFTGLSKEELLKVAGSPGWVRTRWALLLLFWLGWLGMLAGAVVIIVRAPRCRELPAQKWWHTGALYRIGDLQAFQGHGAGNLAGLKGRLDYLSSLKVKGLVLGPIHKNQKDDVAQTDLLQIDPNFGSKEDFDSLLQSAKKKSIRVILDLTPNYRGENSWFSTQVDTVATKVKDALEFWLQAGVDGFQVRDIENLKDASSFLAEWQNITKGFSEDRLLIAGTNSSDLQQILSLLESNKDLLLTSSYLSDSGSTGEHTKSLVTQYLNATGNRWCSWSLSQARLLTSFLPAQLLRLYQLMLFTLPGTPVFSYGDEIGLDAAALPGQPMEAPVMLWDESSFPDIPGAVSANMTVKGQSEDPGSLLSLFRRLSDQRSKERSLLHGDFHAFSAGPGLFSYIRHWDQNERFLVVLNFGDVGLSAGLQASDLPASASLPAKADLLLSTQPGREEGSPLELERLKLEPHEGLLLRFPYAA
Experimental: LS174T cells were seeded into 12-well plates at a density of 1×10^6/well. After a 48 h incubation, cells were carefully washed with prewarmed Na^+-free uptake buffer (10 mM Tris-HCl, 150 mM KCl, 5 mM MgCl2, 1 mM EGTA, pH 7.4) twice and incubated in 0.5 mL of Na^+-free uptake buffer at 37 °C for 15 min. Cells were washed with Na^+-free uptake buffer once again and incubated with different concentrations of JPH203 or DMSO at 37 °C for 15 min. Cells were then allowed to take up 5 μM of leucine-d3 at 37 °C for another 15 min. After incubation, cells were washed with Na^+-free uptake buffer three times and lysed with 200 μL of acetonitrile. The cell lysate was transferred to a new tube and the supernatant was collected by centrifugation at 12,000 rpm for 10 min at 4°C. Leucine-d3 uptake was quantified with LC-MS/MS.
Prepared samples were separated on an Agilent 1290 II system (CA, United States) equipped with an XSelect HSS T3 C18 reverse phase column (2.1 × 150 mm, 3.5 μm). […]
Targeted analytes were monitored in a negative multiple-reaction monitoring (MRM) mode on an Agilent 6495C triple quadrupole […] system (CA, United States). […] Leucine-d3 and TCA-d4 were monitored in negative ion mode with MRM ion pairs at 135.1 > 89.2 (collision energy: 14 eV) and 518.0 > 124.0 (collision energy: 65 eV), respectively. […]

LAT1 [2] = biological target: T2, LAT1; experiment: 3H-leucine uptake assay in LS174T cells; conditions: read-out: IC50, inhibition of 3H-leucine uptake, radioactive method, mean ± s.d., n = 3
Experimental: The inhibitory activity of JPH203 on LAT1 was analyzed by measuring the cell uptake of ^3H-leucine as previously described with minor modifications ([Oda et al., 2010]). Similar to leucine-d3 uptake assay, LS174T cells were washed twice and incubated in Na^+-free uptake medium (10 mM Tris-HCl, 150 mM KCl, 5 mM MgCl2, 1 mM EGTA, pH 7.4) for 15 min. Cells were added with JPH203 or DMSO and incubated for another 15 min before adding ^3H-leucine. After 15 min incubation, cells were washed three times and lysed with 0.2 N NaOH plus 0.2% SDS. The cell lysate was transferred to a new tube containing 1 mL of optiphase supermix. ^3H-leucine uptake was quantified with a scintillation counter.

Row | SMILES | IC50 (NTCP; 5 μM TCA-d4, 15 min uptake, mean ± s.d., n = 3, read-out: IC50, inhibition of TCA-d4 uptake) | TCA-d4 uptake (% of control) (NTCP; rapafucins at a final concentration of 2 μM) | activation of BMP reporter gene (BMP reporter gene) | IC50 (LAT1 [1]) | IC50 (LAT1 [2])
1 | CCCC[C@H]1C(=O)N[C@@H](Cc2ccc(F)cc2)C(=O)N(C)CC/C=C/C(=O)OCC(C)(C)C(=O)C(=O)N2CCCC[C@H]2C(=O)O[C@H](CCc2ccc(OC)c(OC)c2)c2cccc(c2)OCC(=O)N(C)CC(=O)N[C@@H](Cc2cccs2)C(=O)N1C [JH7] | 49.3 ± 0.8 nM | 19.35 % of control | did not activate | – | –
2 | Nc1cc(COc2c(Cl)cc(C[C@H](N)C(=O)O)cc2Cl)c2oc(-c3ccccc3)nc2c1 [JPH203] | – | – | – | 1110 ± 210 nM | 960 ± 90 nM
